Data set [1] in a line: Stability of the isolated modified amino acid ester by 1H NMR. It counts as physicochemical. As to conditions: isolated solid or fluid.
The subject of another data set is Gram Negative. Put plainly: Surface Antimicrobial Kill Testing Method, activity normalized to triclosan internal standard. In kind it is cell-based. As to conditions: for Negative Referenced Microbial Activity: Table 16; for Negative Referenced Microbial Activity / Referenced Microbial Activity / Gram Negative Referenced Microbial Activity: 0.5 wt % compound; for Negative Referenced Microbial Activity / Referenced Microbial Activity: 0.1M Acetic acid buffer pH 4.5; for antimicrobial benefit (in words): Table 16 nonionic formulation: DEGBE, EcoSurf EH9; for Referenced Microbial Activity: Table 15; for Gram Negative Referenced Microbial Activity: 5 wt % DPGME; for antimicrobial efficacy (in words): Table 17. On the procedure: Inoculum is prepared by streaking microorganism onto a Tryptic Soy Agar (TSA) plate and incubating for 24 h at 33° C. Plated bacteria is resuspended in saline until the transmittance percentage falls within the accepted range for ˜10^8 cfu/mL. For K. pneumonia (Kp) and P. aeruginosa (Pa), this is 31.00-33.00% T. For S. aureus (Sa) this is 23.00-25.00% T. A 10× concentration is made by spinning down the prepared inoculum, removing the supernatant saline from the bacterial pellet, then resuspending the pellet in 1/10 of the original volume of saline. The final inoculum is prepared with 5% of “soil” in the form of Fetal Bovine Serum (FBS).
A 18×18 mm sterile glass coverslip is placed into an appropriate container (e.g. petri dish). 20 μL of prepared inoculum is added to the glass coverslip. Inoculum is then air-dried for 30 minutes in a 36° C. incubator. After drying, 40 μL of test sample is added on top of the dried inoculum. This is incubated at room temperature for the desired contact time. 5 mL of neutralizing media (Modified Letheen Broth+Tween+Lecithin (MLBTL)) is added to the coverslip and shaken on an orbital shaker for 5 minutes to ensure proper neutralization and extraction. Viability is then assessed of the neutralized and extracted sample by traditional/alternative microbiological techniques.
The normalized antimicrobial activity reported in the performance examples below was generated from detection time data obtained as described in the Surface Antimicrobial Kill Test Method. To account for day-to-day variability an internal standard was tested with each series. The internal standard was a composition of 0.25 wt % Triclosan, Sigma Aldrich (St. Louis, Mo., USA; CAS #3380-34-5, 97.0-103.0% (active substance, GC)), 50 wt % DMSO, and 49.75 wt % H2O, with a final solution pH of 7.7. Normalized activity is reported following the equation 1 below.
Normalized Activity=(αΔDT−βΔDT)/(γΔDT−βΔDT) equation 1.
where, αΔDT is the average detection time of the antimicrobial compound, and γΔDT is the average detection time of the reference triclosan internal standard, and βΔDT is the average detection time of the background unperturbed bacteria.
Modified amino acids of the present disclosure were tested as aqueous solutions in the Surface Antimicrobial Kill Testing Method above. To prepare test solutions modified amino acids were first dissolved in the appropriate solvent. Second the selected surfactant is added to the mixture. After vortex (1 min, Vortex-2 Genie, vortex speed 8) mixing, the samples were then diluted with […] of reverse osmosis water (RO water, Millipore Direct-Q™, pH 6). The aqueous solution was then vortexed (1 min, Vortex-2 Genie, vortex speed 8), to which the second ½ portion of water is added. The pH of the solution was then adjusted to the target pH using either 1N HCl, Glacial Acetic Acid, or 1N NaOH. The final solution was then vortexed (1 min, Vortex-2 Genie, vortex speed 8). An example batch sheet is provided below in Table 1.
In Performance Examples 1-4 below, formulations comprising solvent, surfactant, and antimicrobial agents according to the present disclosure (e.g., based on modified amino acid esters), are evaluated via microbial surface kill tests according to the Surface Antimicrobial Kill Testing Method provided above. After treatment, microbial growth is referenced and reported to a triclosan sample and unaltered microbes according to the Normalization of Antimicrobial Activity provided above.

The mark [2] stands for this setting: DEGBE (5 wt %), EcoSurf EH9 1 wt %.

SMILES strings stand for the structures.

As to `CCCCCCCCCCCCOC(=O)[C@@H](N)Cc1ccccc1` [Synthetic Example 10], in data set [1], the “stability by 1H NMR” value was “stable for several months”. Moreover, the “Negative Referenced Microbial Activity” value in the data set on Gram Negative (setting [2]) is on record as 0.1. Moreover, in the data set on Gram Negative, the “antimicrobial benefit (in words)” value is “little surface activity”.
For the molecule `CCCCCCOC(=O)[C@@H](N)C(C)C` [Synthetic Example 3], in data set [1], the “stability by 1H NMR” value is given as “stable for several months”. Further, in the data set with Gram Negative (setting [2]), the “Referenced Microbial Activity” value is given as 2.8.
In the case of `CCCCCCCCOC(=O)[C@@H](N)C(C)C` [Synthetic Example 4], the “stability by 1H NMR” value in data set [1] is “stable for several months”. Also, the “Gram Negative Referenced Microbial Activity” value with Gram Negative (CTAC 1 wt %, pH 4.5) is listed as 3.5; in the data set on Gram Negative (Ecosurf EH6 1 wt %, pH 4.5), 3.5; in the data set on Gram Negative (Ecosurf EH6 1 wt %, pH 8.5), 0.7; in the data set on Gram Negative (Miranol Ultra 32 1 wt %, pH 4.5), 3.5; with Gram Negative (Plantaren 2000 1 wt %, pH 4.5) it was 3.5; in the data set on Gram Negative (SLS (29%) 1 wt %, pH 4.5) it was 0.4. Moreover, the “Gram Negative Referenced Microbial Activity” value is reported as 0.1 in the data set on Gram Negative (SLS (29%) 1 wt %, pH 8.5); 2.5 in the data set with Gram Negative (Surfonic L 24-9 1 wt %, pH 2); 3.5 in the data set with Gram Negative (Surfonic L 24-9 1 wt %, pH 4.5); 3.5 in the data set on Gram Negative (Surfonic L24-9 1 wt %, pH 7); 0.2 in the data set on Gram Negative (Surfonic L24-9 1 wt %, pH 8.5); 3.5 in the data set with Gram Negative (Tween 80 1 wt %, pH 4.5). For the same molecule, the “Gram Negative Referenced Microbial Activity” value in the data set with Gram Negative (no surfactant, pH 4.5, solution heated to 50 C. prior to testing) turned out to be 1.6. In addition, the “Referenced Microbial Activity” value turned out to be 3.7 in the data set with Gram Negative (DEGBE (5 wt %), EcoSurf EH6 1 wt %) and 1.6 with Gram Negative (setting [2]). Moreover, the “antimicrobial activity (in words)” value in the data set with Gram Negative (Table 15 experiment, modified valine amino acids) is listed as “highest activity”. The “antimicrobial efficacy (in words)” value in the data set on Gram Negative (from pH 2 to about pH 7) is on record as “improved antimicrobial efficacy”; with Gram Negative (pH range greater than 7), “did not provide a benefit”.
As for `N[C@@H](Cc1ccccc1)C(=O)OCc1ccccc1` [Synthetic Example 8], the “stability by 1H NMR” value in data set [1] is “stable for several months”. In the data set on Gram Negative (setting [2]), the “Negative Referenced Microbial Activity” value is 4.6.
As to `CCCCCCCCCCCCCCCCCCOC(=O)[C@@H](N)C(C)C` [Synthetic Example 7], the “stability by 1H NMR” value in data set [1] was “stable for several months”. Also, the “Referenced Microbial Activity” value is on record as 0.9 with Gram Negative (setting [2]) and 0.6 in the data set with Gram Negative (DMSO (50 wt %), EcoSurf EH6 1 wt %).
With `CCOC(=O)[C@@H](N)Cc1ccccc1` [Comparative Example C2, phenylalanine ethyl ester, reference compound], the “Negative Referenced Microbial Activity” value in the data set with Gram Negative (setting [2]) came out at 0.4. The “antimicrobial benefit (in words)” value with Gram Negative is reported as “little antimicrobial benefit”.
In the case of `CCOC(=O)C(N)C(C)C` (stereo not shown) [Comparative Example C1, reference compound], the “Referenced Microbial Activity” value in the data set on Gram Negative (setting [2]) is recorded as 0.5.
With `CCCCCCCCCCCCCCCCOC(=O)[C@@H](N)C(C)C` [Synthetic Example 6], in data set [1], the “stability by 1H NMR” value is reported as “stable for several months”. The “Referenced Microbial Activity” value in the data set on Gram Negative (setting [2]) is given as 0.6.
